Measured values published in patent publication US8771687B2, “Methods for treating a tumor using an antibody that specifically binds GRP94” (University of Pittsburgh—Of the Commonwealth System of …, priority 2010, dated 2014).

Legend:
[1] = system: BRAF mutated advanced melanoma; details: cited from earlier work
[2] = system: advanced melanoma with the V600E BRAF mutation; details: patients with the V600E BRAF mutation, Phase I; cited from earlier work
[3] = system: GRP94 expression by M21 melanoma cell line; test: Effect of BRAF-I on GRP94 expression, staining with mAb W9, flow cytometry; format: cell-based, human; details: M21 cells, 1 μM of PLX4720, 14 days, vs untreated cells
Experimental: Effect of BRAF-I on GRP94 expression by M21 melanoma cell line. Cells (2×10^5/ml) were incubated in RPMI 1640 medium containing 10% FCS with 1 μM of BRAF-I for 14 days. […] Untreated cells were used as control. Percentage of stained cells and mean fluorescence intensity (MFI) are indicated.
M21 cells were cultured in RPMI 1640 medium supplemented with 10% FBS and 1 μM of PLX4720. Cells were harvested after 14 days of culture, and washed twice with PBS-BSA. Cells (1×10^5/sample), and were stained with 1 μg of anti-GRP94 mAb W9. Human IgG (HIg) and untreated cells were used as controls. Following an incubation of 30 min at 4° C., cells were washed three times with PBS containing 2% of BSA (PBS-BSA). Cells were then incubated with an appropriate dilution of PE-conjugated anti-human IgG for 30 min at 4° C. Cells were washed and fixed with 2% PFA. Immunofluorescence was measured using a Cyan cytofluorimeter.
M21 cells were cultured in RPMI 1640 medium supplemented with 10% FBS and 1 μM of PLX4720. Cells were harvested after 14 days of culture, and washed twice with PBS-BSA. Cells (1×10^5/sample), and were stained with 1 μg of anti-GRP94 mAb W9. Human IgG (HIg) and untreated cells were used as controls. Following an incubation of 30 min at 4° C., cells were washed three times with PBS containing 2% of BSA (PBS-BSA). […]

[4] = system: V600E mutated melanoma cell lines sensitive to BRAF-I; test: Development of secondary resistance on in vitro treatment with increasing doses, MTT assay; format: cell-based, human; details: increasing doses (2.5-10 μM)
Experimental: The cell line M21 (harboring the V600E BRAF missense mutation) (4×10^5/well) was cultured in a 6-well plate containing RPMI 1640 medium supplemented with 10% FBS and 2.5 μM of PLX4720. Medium was changed every 4 days. On the 8th day the concentration of PLX4720 was increased to 5 μM. Cells were cultured under these conditions for 12 days changing the medium every 4 days. Then the concentration of PLX4720 in the medium was increased to 10 μM, and the medium has been changed every 3 days. Cells were cultured until when resistant colonies appeared (around 3 weeks). Cells were tested for resistance to BRAF-I PLX4720 by analyzing their growth in the presence of 10 μM of PLX4720, using the MTT assay.

CCCS(=O)(=O)Nc1ccc(F)c(C(=O)c2c[nH]c3ncc(-c4ccc(Cl)cc4)cc23)c1F [PLX4032, Vemurafenib]
response rate ([1]; 32 BRAF mutated advanced melanoma patients, phase II study): 70% | median duration of response ([1]; patients, secondary resistance): ~8 months | tumor regression and overall survival [2]: effective in promoting tumor regression and increasing overall survival

CCCS(=O)(=O)Nc1ccc(F)c(C(=O)c2c[nH]c3ncc(Cl)cc23)c1F [PLX4720]
expression of GRP94 [3]: increased expression of GRP94 | time of in vitro treatment until cell lines became secondary resistant [4]: 3-4 week
